Assay results reported in patent publication US7132417B2, “2-phenyl-1-[4-(2-aminoethoxy)-benzyl]-indoles as estrogenic agents” (Wyeth, priority 1996, dated 2006).

Key:
Ishikawa cells = assay: Ishikawa cell alkaline phosphatase assay; type: cell-based, human; conditions: for % Activation with 1 nM 17β-estradiol: compound + 1 nM 17β-estradiol (antiestrogen test)
Procedure: Cells were treated for 48 h prior to assay. […] Sample population for at each dose was n=8. […] Plates are placed at -80° C. for a minimum of 15 minutes. Plates are thawed at 37° C. followed by the addition of 150 μL of 0.1 M Tris-HCl, pH 9.8, containing 4 mM para-nitrophenylphosphate (pNPP) to each well (final concentration, 3 mM pNPP). Absorbance and slope calculations were made using the […] Application program (Bio-Tek Instruments, Inc., Winooski, Vt.). […] The four listed in the following were used as reference standards: A description of these methods is described by Holinka, […]., Kuramoto, H. and Gurpide, E. (1986) Effects of steroid hormones and antisteroids on alkaline phosphatase activity in human endometrial cancer cells (Ishikawa Line). Cancer Research, 46:2771-2774, and by […]. and […] simple and sensitive microtiter plate estrogen bioassay based on stimulation alkaline phosphatase in Ishikawa cells; […] Endocrinology, 6:2757-2762.

[1] = tested on: Immature Sprague-Dawley rats; assay: Rat uterotrophic/antiuterotrophic bioassay; type: in vivo; conditions: daily ip; for Uterine wt mg 100 uG cmpd + 1 uG 17β-estradiol: 100 uG compound + 1 uG 17β-estradiol; for Uterine wt mg 100 uG cmpd: 100 uG compound, immature female rats, uterine wet weight
Procedure: Method No. 19 Rat Uterotrophic/Antiuterotrophic Bioassay
The estrogenic and antiestrogenic properties of the compounds were determined in an immature rat uterotrophic assay (4 day) that (as described previously by L. J. Black and R. L. Goode, Life Sciences, 26, 1453(1980)). Immature Sprague-Dawley rats (female, 18 days old) were tested in groups of six. […] On day 4 the animals were sacrificed by CO2 asphyxiation and their uteri were removed and stripped of excess lipid, any fluid removed and the wet weight determined. A small section of one horn was submitted for histology and the remainder used to isolate total RNA in order to evaluate complement component 3 gene expression.

estrogen receptor [2] = target: T1, estrogen receptor (Homo sapiens, UniProt P03372); assay: 2X VIT ERE infection (luciferase) assay; type: cell-based; set-up: expressed in transfected cells; host or cells: Chinese Hamster Ovary cells (CHO), stably transfected; conditions: for Infection Luciferase Activity 1 uM + 17β estradiol: 1 uM compound + 1 nM 17β-estradiol (test for estrogen antagonism); for Infection Luciferase Activity 1 uM: 1 uM compound, percentage of activity as compared to 17β-estradiol
T1 sequence (P03372 1-595): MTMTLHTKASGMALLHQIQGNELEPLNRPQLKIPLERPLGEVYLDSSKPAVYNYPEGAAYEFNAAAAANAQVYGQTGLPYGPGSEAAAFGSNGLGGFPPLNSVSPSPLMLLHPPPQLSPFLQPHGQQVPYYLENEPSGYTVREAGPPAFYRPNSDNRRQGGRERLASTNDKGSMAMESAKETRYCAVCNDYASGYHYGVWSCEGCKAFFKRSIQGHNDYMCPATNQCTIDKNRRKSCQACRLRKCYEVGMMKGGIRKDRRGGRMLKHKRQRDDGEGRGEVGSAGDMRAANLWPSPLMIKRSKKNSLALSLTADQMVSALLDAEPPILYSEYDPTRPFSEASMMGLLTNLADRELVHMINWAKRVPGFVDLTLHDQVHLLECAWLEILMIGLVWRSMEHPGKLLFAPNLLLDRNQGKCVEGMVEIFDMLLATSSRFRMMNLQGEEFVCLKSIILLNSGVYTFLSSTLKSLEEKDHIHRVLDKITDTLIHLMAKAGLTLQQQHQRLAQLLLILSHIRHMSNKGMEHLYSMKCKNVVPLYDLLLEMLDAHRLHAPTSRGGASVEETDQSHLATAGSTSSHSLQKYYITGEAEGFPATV
Procedure: Method No. 18 2X VIT ERE Infection Assay Cell Maintenance and Treatment
Chinese Hamster Ovary cells (CHO) which had been stably transfected with the human estrogen receptor were maintained in DMEM+10% fetal bovine serum (FBS). 48 h prior to treatment the growth medium was replaced with DMEM lacking phenol red +10% dextran coated charcoal stripped FBS (treatment medium). Cells were plated at a density of 5000 cells/well in 96-well plates containing 200 µL of medium/well.
Reporter DNA (Promega plasmid pGL2 containing two tandem copies of the vitellogenin ERE in front of the minimal thymidine kinase promoter driving the luciferase gene) was combined with the B-galactosidase expression plasmid pCH110 (Pharmacia) and carrier DNA (pTZ18U) in the following ratio:
20 uL of this mixture was added to each well of cells and remained on the cells for 16 h. […] Each treatment condition was performed on 8 wells (n=8) which were incubated for 24 h prior to the luciferase assay.
After removing the PBS, 25 uL of Promega lysis buffer was added to each well and allowed to stand at room temperature for 15 min, followed by 15 min at −80° C. and 15 min at 37° C. 20 uL of lysate was transferred to an opaque 96 well plate for luciferase activity evaluation and the remaining lysate (5 uL) was used for the B-galactosidase activity evaluation (normalize transfection). The luciferan substrate (Promega) was added in 100 uL aliquots to each well automatically by the luminometer and the light produced (relative light units) was read 10 seconds after addition.
To the remaining 5 uL of lysate 45 uL of PBS was added. Then 50 uL of Promega B-galactosidase 2× assay buffer was added, mixed well and incubated at 37° C. for 1 hour. A plate containing a standard curve (0.1 to 1.5 milliunits in triplicate) was set up for each experimental run. The plates were analyzed on a Molecular Devices spectrophotometric plate reader at 410 nm. The optical densities for the unknown were converted to milliunits of activity by mathematical extrapolation from the standard curve.
The luciferase data was generated as relative light units (RLUs) accumulated during a 10 second measurement and automatically transferred to a JMP (SAS Inc) file where background RLUs were subtracted. The B-galactosidase values were automatically imported into the file and these values were divided into the RLUs to normalize the data. The mean and standard deviations were determined from a n=8 for each treatment. […] These techniques are described by Tzukerman, M. T., Esty, A., Santiso-Mere, D., Danielian, P., Parker, M. G., Stein, R. B., Pike, J. W. and McDonnel, D. P. (1994).

estrogen receptor [3] = target: T1, estrogen receptor; assay: In vitro estrogen receptor binding assay ([3H]-17β-estradiol competition); set-up: expressed in transfected cells; host or cells: CHO cells (100,000 g cytosol); conditions: read-out: Receptor Binding IC50's
Procedure: In Vitro Estrogen Receptor Binding Assay
CHO cells overexpressing the estrogen receptor were grown in 150 mm^2 dishes in DMEM+10% dextran coated charcoal, stripped fetal bovine serum. The plates were washed twice with PBS and once with 10 mM Tris-HCl, pH 7.4, 1 mM EDTA. Cells were harvested by scraping the surface and then the cell suspension was placed on ice. Cells were disrupted with a hand-held motorized tissue grinder using two, 10-second bursts. […] The cytosol was then frozen and stored at −80° C. Protein concentration of the cytosol was estimated using the BCA assay with reference standard protein.
100 uG/100 uL of the receptor preparation was aliquoted per well. […] The plate was incubated at room temperature for 2.5 h. […] 200 uL of the supernatant solution was then removed for scintillation counting. Samples were counted to 2% or 10 minutes, whichever occurs first. […] Also, wells containing radioactivity but no cytosol were processed with charcoal to estimate unremovable DPM of [^3H]
Counts per minute (CPM) of radioactivity were automatically converted to disintegrated per minute (DPM) by the Beckman LS 7500 Scintillation Counter using a set of quenched standards to generate a H No. for each sample.
For the generation of IC50 curves, % binding is plotted vs compound. […] For a description of these methods, see Hulme, E. C., ed. […] Receptor-Ligand Interactions: A Practical Approach. IRL Press, New York. (see especially chapter 8).

| Compound | Uterine wt mg 100 uG cmpd + 1 uG 17β-estradiol [1] [mg] | Uterine wt mg 100 uG cmpd [1] [mg] | Infection Luciferase Activity 1 uM + 17β estradiol (estrogen receptor [2]) [%] | Infection Luciferase Activity 1 uM (estrogen receptor [2]) [%] | IC50 (estrogen receptor [3]) [nM] | other results |
| --- | --- | --- | --- | --- | --- | --- |
| C[C@]12CC[C@@H]3c4ccc(O)cc4CC[C@H]3[C@@H]1CC[C@H]2O [17α-estradiol] |  |  |  |  |  | EC50 (Ishikawa cells; reference standards, read-out: ED50 values (95% C.I.), estrogenic activity by the alkaline phosphatase method): 1.42 nM |
| Cc1c(-c2ccc(O)cc2)n(Cc2ccc(OCCN(C)C)cc2)c2ccc(O)cc12 [Example No. 100, 2-(4-Hydroxy-phenyl)-3-methyl-1-[4-(2-dimethyl-1-yl-ethoxy)-benzyl]-1H-indol-5-ol] | 68.7 | 59.9 |  |  |  |  |
| Cc1c(-c2ccccc2)n(Cc2ccc(OCCN3CCCCC3)cc2)c2ccccc12 [compound 85, 4-{3-Methyl-1-[4-(2-piperidin-1-yl-ethoxy)-benzyl]-1H-indole}] | 92.4 | 41.1 | 43 | −2 |  |  |
| Cc1c(-c2ccc(O)cc2)n(Cc2ccc(OCCN3CCCCCC3)cc2)c2ccc(O)cc12 [Example No. 98, 1-[4-(2-Azepan-1-yl-ethoxy)-benzyl]-2-(4-hydroxy-phenyl)-3-methyl-1H-indol-5-ol] |  |  |  |  |  | % Activation with 1 nM 17β-estradiol (Ishikawa cells): activity (1% with 1 nM 17β-estradiol) |
| O=C(c1ccc(OCCN2CCCCC2)cc1)c1c(-c2ccc(O)cc2)sc2cc(O)ccc12 [raloxifene] |  |  |  |  |  | % Activation with 1 nM 17β-estradiol (Ishikawa cells): activity (5% with 1 nM 17β-estradiol) |
| Cc1c(-c2ccc(OC3CCCC3)cc2)n(Cc2ccc(OCCN3CCCCC3)cc2)c2ccc(O)cc12 [compound 122, 2-(4-Cyclopenyloxy-phenyl)-3-methyl-1-[4-(2-piperidin-1-yl-ethoxy)-benzyl]-1H-indol-5-ol] | 38.7 | 46.7 | 5 | 1 | 80 |  |
| CC/C(=C(\c1ccccc1)c1ccc(OCCN(C)C)cc1)c1ccccc1 [tamoxifen] |  | 71.4 |  |  |  | % Activation with 1 nM 17β-estradiol (Ishikawa cells): activity (45% with 1 nM 17β-estradiol); % Activation (Ishikawa cells; compound alone, percent of response related to 1 nM 17β-estradiol): 0% |
| N#Cc1c(-c2ccc(O)cc2)n(Cc2ccc(OCCN3CCCCCC3)cc2)c2ccc(O)cc12 [compound 139, 1-[4-(2-Azepan-1-yl-ethoxy)-benzyl]-5-hydroxy-2-(4-hydroxy-phenyl)-1H-indole-3-cabonitrile] |  |  | −13 | −12 | 23 |  |
| Cc1ccc(-c2c(C)c3cc(O)ccc3n2Cc2ccc(OCCN3CCCCC3)cc2)cc1 [compound 124, 3-Methyl-1-[4-(2-piperidin-1-yl-ethoxy)-benzyl]-2-p-tolyl-1H-indol-5-ol] |  |  | −2 | −2 | 110 |  |
| CCN(CC)CCOc1ccc(Cn2c(-c3ccc(O)cc3)c(C)c3cc(O)ccc32)cc1 [compound 101, 2-(4-Hydroxy-phenyl)-3-methyl-1-[4-(2-diethyl-1-yl-ethoxy)-benzyl]-1H-indol-5-ol] | 71.0 | 65.1 |  |  |  |  |
| Cc1c(-c2ccc(OC(C)C)cc2)n(Cc2ccc(OCCN3CCCCC3)cc2)c2ccc(O)cc12 [compound 120, 2-(4-Isopropoxy-phenyl)-3-methyl-1-[4-(2-piperidin-1-yl-ethoxy)-benzyl]-1H-indol-5-ol] |  |  | 1 | −1 | 100 |  |
| Cc1cc(O)ccc1-c1c(Cl)c2cc(O)ccc2n1Cc1ccc(OCCN2CCCCC2)cc1 [compound 136, 3-Chloro-2-(4-hydroxy-2-methyl-phenyl)-1-[4-(2-piperidin-1-yl-ethoxy)-benzyl]-1H-indol-5-ol] |  |  | 10 | 16 | 13 |  |
